In the assay the test system is K12877-001-R-J1-PDC complex spheroid viability. In words: Anticancer human tumor K12877-001-R-J1-PDC patient-derived lung adenocarcinoma cell line growth inhibition [RAS]. Conditions: for viability, T/C: stronger effect = lower value. The method in brief:
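Tumour cells grown as complex spheroids with HUVEC endothelial cells and mesenchymal stem cells, treated with RAS pathway inhibitor combinations. Each agent spans half-log steps from near clinical Cmax, or 10 microM where Cmax is unknown.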

The mark [1] stands for this setting: curve of first compound, second compound 0.00316 µM.
The mark [2] stands for this setting: curve of first compound, second compound 0.01 µM.
The mark [3] stands for this setting: curve of first compound, second compound 0.0316 µM.
[4] abbreviates: curve of first compound, second compound 0.1 µM.
[5] abbreviates: curve of first compound, second compound 0.316 µM.
The mark [6] stands for this setting: curve of first compound, second compound 1 µM.
Where [7] appears, read: second compound 0.00316 µM, first compound 0.0316 µM.
The mark [8] stands for this setting: second compound 0.00316 µM, first compound 0.1 µM.
Setting [9] is: second compound 0.00316 µM, first compound 0.316 µM.
Setting [10] is: second compound 0.00316 µM, first compound 1 µM.
Setting [11] is: second compound 0.01 µM, first compound 0.0316 µM.
Setting [12] is: second compound 0.01 µM, first compound 0.1 µM.
Setting [13] is: second compound 0.01 µM, first compound 0.316 µM.
Where [14] appears, read: second compound 0.01 µM, first compound 1 µM.
The mark [15] stands for this setting: second compound 0.0316 µM, first compound 0.0316 µM.
Setting [16] is: second compound 0.0316 µM, first compound 0.1 µM.
[17] abbreviates: second compound 0.0316 µM, first compound 0.316 µM.
[18] abbreviates: second compound 0.0316 µM, first compound 1 µM.
[19] abbreviates: second compound 0.1 µM, first compound 0.0316 µM.
The mark [20] stands for this setting: second compound 0.1 µM, first compound 0.1 µM.
Where [21] appears, read: second compound 0.1 µM, first compound 0.316 µM.
[22] abbreviates: second compound 0.1 µM, first compound 1 µM.
[23] abbreviates: second compound 0.316 µM, first compound 0.0316 µM.
The mark [24] stands for this setting: second compound 0.316 µM, first compound 0.1 µM.
[25] abbreviates: second compound 0.316 µM, first compound 0.316 µM.
The mark [26] stands for this setting: second compound 0.316 µM, first compound 1 µM.
[27] abbreviates: second compound 1 µM, first compound 0.0316 µM.
[28] abbreviates: second compound 1 µM, first compound 0.1 µM.
[29] abbreviates: second compound 1 µM, first compound 0.316 µM.
The mark [30] stands for this setting: second compound 1 µM, first compound 1 µM.

Several values for one entry are separate records, joined by “and”; a condition that tells them apart may be missing. Identical values can stand only once. A value given as a limit tells only on which side of the number the result lay.

For 5 compounds, IC50 and viability, T/C results are on record in PubChem BioAssay AID2060894 (Molecular Pharmacology Branch, DTP, NCI, 2025).
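Further: spheroids exposed to agents for one week before readout.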

In the case of `Nc1ccn(C2OC(CO)C(O)C2(F)F)c(=O)n1` (stereo unspecified) + C=CC(=O)N1CCN(c2nc(OCC3CCCN3C)nc3c(F)c(-c4nc(N)cc(C)c4C(F)(F)F)c(Cl)cc23)C(C)C1, the IC50 runs as follows: under setting [1], 0.0179 µM; under setting [2], 0.0169 µM; under setting [3], 0.0161 µM; under setting [4], 0.0166 µM; under setting [5], 0.0144 µM; under setting [6], 0.0131 µM. Moreover, the viability, T/C (second compound 0.00316 µM, first compound 0.00316 µM) was 95.9%; the viability, T/C (second compound 0.00316 µM, first compound 0.01 µM) was 94.4%; the viability, T/C under setting [7] is 6.55%; the viability, T/C under setting [8] was 4.24%; the viability, T/C under setting [9] is 4.05%; the viability, T/C under setting [10] is 3.99%. Besides, the viability, T/C is 93.7% (second compound 0.01 µM, first compound 0.00316 µM); 83% (second compound 0.01 µM, first compound 0.01 µM); 10.8% under setting [11]; 4.22% under setting [12]; 4.2% under setting [13]; 4.01% under setting [14]. Further, the viability, T/C (second compound 0.0316 µM, first compound 0.00316 µM) is 83.5%; the viability, T/C (second compound 0.0316 µM, first compound 0.01 µM) is 81.2%; the viability, T/C under setting [15] is 6.08%; the viability, T/C under setting [16] was 3.45%; the viability, T/C under setting [17] is 5.01%; the viability, T/C under setting [18] is 4.23%. The viability, T/C by setting is: (second compound 0.1 µM, first compound 0.00316 µM) 87.8%; (second compound 0.1 µM, first compound 0.01 µM) 84.7%; under setting [19], 6.15%; under setting [20], 4.69%; under setting [21], 4.71%; under setting [22], 3.18%. Besides, the viability, T/C (second compound 0.316 µM, first compound 0.00316 µM) is 84.9%; the viability, T/C (second compound 0.316 µM, first compound 0.01 µM) was 70.4%; the viability, T/C under setting [23] is 6.26%; the viability, T/C under setting [24] is 4.95%; the viability, T/C under setting [25] was 4.16%; the viability, T/C under setting [26] was 4.03%. Also, the viability, T/C reads like this: (second compound 1 µM, first compound 0.00316 µM) 83.5%; (second compound 1 µM, first compound 0.01 µM) 63.4%; under setting [27], 6.51%; under setting [28], 3.92%; under setting [29], 4.72%; under setting [30], 5.35%.

In the case of `CCc1c2c(nc3ccc(O)cc13)-c1cc3c(c(=O)n1C2)COC(=O)[C@]3(O)CC`, the viability, T/C was 99.2% [middle of 4 runs] (compound 0.000949 µM); 14% [middle of 4 runs] (compound 0.00949 µM); 5.09% [middle of 4 runs] (compound 0.03 µM); 3.24% [middle of 4 runs] (compound 0.0949 µM); 1.19% [middle of 4 runs] (compound 0.3 µM). For the setting “curve of compound”, the half-inhibitory concentration (IC50) is 5.02 nM [middle of 4 runs].

With `O=C(c1ccc(F)c(F)c1Nc1ccc(I)cc1F)N1CC(O)([C@@H]2CCCCN2)C1`, the viability, T/C is, setting by setting: (compound 0.00316 µM) 109% [middle of 4 runs]; (compound 0.01 µM) 93.5% [middle of 4 runs]; (compound 0.0316 µM) 94.9% [middle of 4 runs]; (compound 0.1 µM) 81.3% [middle of 4 runs]; (compound 0.316 µM) 81.6% [middle of 4 runs]. Moreover, the IC50 (curve of compound) was > 1 µM and 0.496 µM.

As for `Cc1nc(N2CCC3(CC2)COC(C)C3N)c(CO)nc1Sc1ccnc(N)c1Cl` (stereo unspecified) + C=CC(=O)N1CCN(c2nc(OCC3CCCN3C)nc3c(F)c(-c4nc(N)cc(C)c4C(F)(F)F)c(Cl)cc23)C(C)C1, the 50% inhibitory concentration (IC50) is, setting by setting: under setting [1], over 10 µM; under setting [2], over 10 µM; under setting [3], over 10 µM; under setting [4], over 10 µM; under setting [5], over 10 µM; under setting [6], over 10 µM. Besides, the viability, T/C was 111% under setting [7]; 98.5% under setting [8]; 90.6% under setting [9]; 86.9% under setting [10]; 92.4% (second compound 0.00316 µM, first compound 3.16 µM); 93% (second compound 0.00316 µM, first compound 10 µM). For the same compound, the viability, T/C by setting is: under setting [11], 94.8%; under setting [12], 79.3%; under setting [13], 84.4%; under setting [14], 93.3%; (second compound 0.01 µM, first compound 3.16 µM) 83.9%; (second compound 0.01 µM, first compound 10 µM) 68.5%. The viability, T/C by setting is: under setting [15], 91.2%; under setting [16], 92.9%; under setting [17], 88.3%; under setting [18], 70%; (second compound 0.0316 µM, first compound 3.16 µM) 80.7%; (second compound 0.0316 µM, first compound 10 µM) 65.8%. In addition, the viability, T/C was 99.7% under setting [19]; 87.6% under setting [20]; 85.7% under setting [21]; 86.9% under setting [22]; 79.2% (second compound 0.1 µM, first compound 3.16 µM); 60.2% (second compound 0.1 µM, first compound 10 µM). For the same compound, the viability, T/C is 84.9% under setting [23]; 75.9% under setting [24]; 80.5% under setting [25]; 93.9% under setting [26]; 79.4% (second compound 0.316 µM, first compound 3.16 µM); 61.4% (second compound 0.316 µM, first compound 10 µM). For the same compound, the viability, T/C reads like this: under setting [27], 87.3%; under setting [28], 90.8%; under setting [29], 98.8%; under setting [30], 92.6%; (second compound 1 µM, first compound 3.16 µM) 78.8%; (second compound 1 µM, first compound 10 µM) 62.2%.

Take `CC1(C)CCC(Nc2ncc(C(F)(F)F)c(-c3c[nH]c4c(P(C)(C)=O)c(C#N)ccc34)n2)CN1` (stereo unspecified): the viability, T/C is 102% [middle of 4 runs] (compound 0.000949 µM), 44.5% [middle of 4 runs] (compound 0.03 µM), 33% [middle of 4 runs] (compound 0.0949 µM) and 28.3% [middle of 4 runs] (compound 0.3 µM). In addition, the IC50 (curve of compound) is 27.1 nM [middle of 4 runs].
